Reference: BindingDB's records for doi:10.1016/j.bmcl.2006.10.063 (Astrazeneca R&D Boston, 2007)

Target: T1, Amine oxidase [flavin-containing] A (Homo sapiens, UniProt P21397)
T1 sequence (P21397 whole entry): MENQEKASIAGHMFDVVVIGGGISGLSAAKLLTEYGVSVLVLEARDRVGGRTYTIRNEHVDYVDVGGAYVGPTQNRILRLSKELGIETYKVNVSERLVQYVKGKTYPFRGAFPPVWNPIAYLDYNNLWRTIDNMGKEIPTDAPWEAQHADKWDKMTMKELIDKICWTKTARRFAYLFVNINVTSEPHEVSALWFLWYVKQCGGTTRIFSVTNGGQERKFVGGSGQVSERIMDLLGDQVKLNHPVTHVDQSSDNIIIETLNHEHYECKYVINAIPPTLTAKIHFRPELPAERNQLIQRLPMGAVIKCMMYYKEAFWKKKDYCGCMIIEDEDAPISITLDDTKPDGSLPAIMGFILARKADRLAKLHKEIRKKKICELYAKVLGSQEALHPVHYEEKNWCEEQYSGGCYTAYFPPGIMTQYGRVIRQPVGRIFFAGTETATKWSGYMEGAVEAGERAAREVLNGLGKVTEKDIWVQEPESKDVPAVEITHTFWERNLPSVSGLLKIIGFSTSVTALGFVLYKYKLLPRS
Experiment: Inhibition human liver MAOA activity

| Compound | Ki |
| --- | --- |
| Cc1cc(-c2ccc(N3C[C@H](Cn4ccnn4)OC3=O)cc2F)on1 [(5R)-5-((1H-1,2,3-triazol-1-yl)methyl)-3-(3-fluoro-4-(3-methylisoxazol-5-yl)phenyl)oxazolidin-2-one] | 2.9 µM |
| CC(=O)NC[C@H]1CN(c2ccc(-c3cc(C)no3)c(F)c2)C(=O)O1 [N-(((S)-3-(3-fluoro-4-(3-methylisoxazol-5-yl)phenyl)-2-oxooxazolidin-5-yl)methyl)acetamide] | 0.95 µM |

More lines, in order of falling Ki, values ahead:

| Ki | Compound |
| --- | --- |
| 22.6 µM | Cc1cn(C[C@H]2CN(c3ccc(-c4cc(C)no4)c(F)c3)C(=O)O2)nn1 [(5R)-3-(3-fluoro-4-(3-methylisoxazol-5-yl)phenyl)-5-((4-methyl-1H-1,2,3-triazol-1-yl)methyl)oxazolidin-2-one] |
| 20 µM | CC(=O)NC[C@H]1CN(c2ccc(N3CCOCC3)c(F)c2)C(=O)O1 [Zyvox] |
| 0.42 µM | Cc1cc(-c2ccc(N3C[C@H](CNc4ccon4)OC3=O)cc2F)on1 [(5S)-3-(3-fluoro-4-(3-methylisoxazol-5-yl)phenyl)-5-((isoxazol-3-ylamino)methyl)oxazolidin-2-one] |
